Article PMC7782499, “Progerinin, an optimized progerin-lamin A binding inhibitor, ameliorates premature senescence phenotypes of Hutchinson-Gilford progeria syndrome” (Communications Biology, 2021)

Tested on: Beagle dogs
Experiment: Maximum tolerated dose study in Beagle dogs, escalated-dose oral administration
Assay type: in vivo
Parameters: HGB: unit not given here
Conditions: for A/G / ALB / ALP / ALT / AST / BASO / BUN / CHO / CRE / EOS / GLU / HCT / HGB / K+ / LYM / MCH / MCHC / MCV / MONO / NEU / Na+ / PLT / PRO / RBC / Reti / T-BIL / TG / WBC: ~24 h post dose
Excerpt: The protocol and procedures involving the care and use of animals in this study was reviewed and approved by IACUC of QuBEST BIO prior to conduct (Approval no.: QBSIACUC-A18142). During the study, the care and use of animals will be conducted in accordance with all applicable guidelines of Animal Welfare Act. Non-naive one male and one female Beagle dogs (~16–24 months old, original supplier: ORIENTBIO Co., Ltd, Korea) were selected from the stock colony and assigned for the study. The route of administration was the oral (by gavage) route, which is the anticipated clinical route of exposure. Test article formulations were administered once via oral gavage. The day of 1st dosing was designated as Day 1. Each dose was administered via a syringe attached with 12-french feeding tube. A dose volume of 5 ml/kg was used and individual dose volumes were based on the most recent body weight. Each dose was followed by a distilled water of 5 ml. Each animal was observed twice daily (a.m. and p.m.) for mortality and moribundity; findings were recorded as they were observed. Cage side observations were made for each animal once daily; abnormal findings were recorded. […] Body weights were measured prior to each dosing. […] Prior to dosing and ~24 h post each dose, blood was collected as the same method and frequency with hematology analysis using no anticoagulant and then serum was separated by centrifugation and stored at freezer until analyze (AU 400, Olympus, Japan; […] 744 Na^+/K^+/[…] Analyzer, SIEMENS, Germany). In terminal procedures, all surviving animals were returned to the stock colony without necropsy. Toxicity studies were performed by QuBEST BIO Co., Ltd (Yongin, Korea).
The objective of this study was to determine the maximum tolerated dose (MTD) of SLC-D011 following dose escalation by oral gavage to Beagle dogs.
The study group was detailed in Text Table 1.
Text Table 1. Study Group
Dose Level Dose Conc. No. of Animals†
Group Treatment (mg/kg) (mg/mL)
†: Animals were re-used for each dose with at least 4-day wash-out period.
The following parameters were evaluated in this study: mortality, clinical signs, body weights and clinical pathology parameters (hematology and serum biochemistry).
Mortality and Clinical Observations
All animals survived until end of the study. Test article-related clinical observations were limited to oily soft stool in the 100 mg/kg/day group animals and vomitus (frothy) and soft sto ol in the 400 […]
Clinical Pathology Parameters (Hematology and Serum Chemistry) […]
the 100 and 400 mg/kg group animals on approximately 24 hours post each dose, compared to pre […]
Based on the results of this study, the maximum tolerated dose (MTD) of SLC-D011 was considered to […]
Test article formulations were administered once via oral gavage. The day of 1st dosing was designated […]
Each dose was administered via a syringe attached with 12-french feeding tube. A dose volume of 5 mL/kg was used and individual dose volumes were based on the most recent body weight. Each dose was followed by a distilled water of 5 mL. […]
Each animal was observed twice daily (a.m. and p.m.) for mortality and moribundity; findings were recorded as they were observed. Cage side observations were made for each animal once daily; abnormal findings were recorded. Detailed observations were made for each animal once prior to treatment; abnormal findings (ranked/graded, if appropriate) or an indication the animal appears […]
Body weights were measured prior to each dosing. […]
Prior to each dosing and approximately 24 hours post each dose, blood samples for hematology examination were collected from the via cephalic vein into tubes with K2EDTA anticoagulant and […]
Parameters Unit Measurement Method
ⓐ RBC (Red blood cell count) 106/μL Electric Impedance […]
ⓒ HGB (Hemoglobin conc.) g/dL Cyanmethemoglobin […]

CC1(C)Oc2cc3oc(=O)ccc3cc2C[C@@H]1OC/C=C/c1ccccc1 [SLC-D011]
Body weights (100 mg/kg/day group animals by Day 4): lower body weights were temporarily noted | Hematology and serum chemistry parameters (in words) (100 and 400 mg/kg, ~24 hours post each dose vs pre dose): no toxicologically significant changes | A/G (female F1, 100 mg/kg): 0.72 | ALB (female F1, 100 mg/kg): 2.62 g/dL | ALP (female F1, 100 mg/kg): 106.7 U/L | ALT (female F1, 100 mg/kg): 34.3 U/L | AST (female F1, 100 mg/kg): 41.7 U/L | BASO (female F1, 100 mg/kg): 0.6% | BUN (female F1, 100 mg/kg): 17.7 mg/dL | CHO (female F1, 100 mg/kg): 189.4 mg/dL | CRE (female F1, 100 mg/kg): 0.82 mg/dL | EOS (female F1, 100 mg/kg): 1.2% | GLU (female F1, 100 mg/kg): 96.4 mg/dL | HCT (female F1, 100 mg/kg): 47.8% | HGB (female F1, 100 mg/kg): 15.6 | K+ (female F1, 100 mg/kg): 4.5 mmol/L | LYM (female F1, 100 mg/kg): 39.9% | MCH (female F1, 100 mg/kg): 22.5 pg | MCHC (female F1, 100 mg/kg): 32.6 g/dL | MCV (female F1, 100 mg/kg): 68.9 fL | MONO (female F1, 100 mg/kg): 5.6% | NEU (female F1, 100 mg/kg): 52.3% | Na+ (female F1, 100 mg/kg): 141 mmol/L | PLT (female F1, 100 mg/kg): 357 K/uL | PRO (female F1, 100 mg/kg): 6.27 g/dL | RBC (female F1, 100 mg/kg): 6.93 M/uL | Reti (female F1, 100 mg/kg): 0.61% | T-BIL (female F1, 100 mg/kg): 0.18 mg/dL | TG (female F1, 100 mg/kg): 21.3 mg/dL | WBC (female F1, 100 mg/kg): 7.80 K/uL | A/G (female F1, 400 mg/kg): 0.78 | ALB (female F1, 400 mg/kg): 2.53 g/dL | ALP (female F1, 400 mg/kg): 174.7 U/L | ALT (female F1, 400 mg/kg): 39.1 U/L | AST (female F1, 400 mg/kg): 34.5 U/L | BASO (female F1, 400 mg/kg): 0.8% | BUN (female F1, 400 mg/kg): 12.08 mg/dL | CHO (female F1, 400 mg/kg): 175.1 mg/dL | CRE (female F1, 400 mg/kg): 0.85 mg/dL | EOS (female F1, 400 mg/kg): 1.4% | GLU (female F1, 400 mg/kg): 104.39 mg/dL | HCT (female F1, 400 mg/kg): 50.8% | HGB (female F1, 400 mg/kg): 15.7 | K+ (female F1, 400 mg/kg): 4.9 mmol/L | LYM (female F1, 400 mg/kg): 31.2% | MCH (female F1, 400 mg/kg): 22.2 pg | MCHC (female F1, 400 mg/kg): 30.9 g/dL | MCV (female F1, 400 mg/kg): 71.7 fL | MONO (female F1, 400 mg/kg): 6.5% | NEU (female F1, 400 mg/kg): 59.6% | Na+ (female F1, 400 mg/kg): 143 mmol/L | PLT (female F1, 400 mg/kg): 378 K/uL | PRO (female F1, 400 mg/kg): 5.76 g/dL | RBC (female F1, 400 mg/kg): 7.08 M/uL | Reti (female F1, 400 mg/kg): 0.95% | T-BIL (female F1, 400 mg/kg): 0.15 mg/dL | TG (female F1, 400 mg/kg): 29.3 mg/dL | WBC (female F1, 400 mg/kg): 10.99 K/uL | Mortality (female dog, 100 mg/kg): 0/1 | Clinical Observations Day 1 (female dog, 100 mg/kg, about 7 hours post dose): Soft stool (Oily) | Mortality (female dog, 400 mg/kg): 0/1 | Clinical Observations Day 1 (female dog, 400 mg/kg, about 6 hours post dose): Black soft stool | A/G (male M1, 100 mg/kg): 0.58 | ALB (male M1, 100 mg/kg): 2.41 g/dL | ALP (male M1, 100 mg/kg): 83.4 U/L | ALT (male M1, 100 mg/kg): 43.1 U/L | AST (male M1, 100 mg/kg): 28 U/L | BASO (male M1, 100 mg/kg): 0.2% | BUN (male M1, 100 mg/kg): 16.83 mg/dL | CHO (male M1, 100 mg/kg): 161 mg/dL | CRE (male M1, 100 mg/kg): 0.7 mg/dL | EOS (male M1, 100 mg/kg): 4.3% | HCT (male M1, 100 mg/kg): 46.8% | HGB (male M1, 100 mg/kg): 15.4 | K+ (male M1, 100 mg/kg): 4.8 mmol/L | LYM (male M1, 100 mg/kg): 32.4% | MCH (male M1, 100 mg/kg): 23.0 pg | MCHC (male M1, 100 mg/kg): 33.0 g/dL | MCV (male M1, 100 mg/kg): 69.9 fL | MONO (male M1, 100 mg/kg): 7.1% | NEU (male M1, 100 mg/kg): 55.7% | Na+ (male M1, 100 mg/kg): 144 mmol/L | PLT (male M1, 100 mg/kg): 354 K/uL | RBC (male M1, 100 mg/kg): 6.69 M/uL | Reti (male M1, 100 mg/kg): 0.15% | T-BIL (male M1, 100 mg/kg): 0.1 mg/dL | TG (male M1, 100 mg/kg): 28.9 mg/dL | WBC (male M1, 100 mg/kg): 8.83 K/uL | A/G (male M1, 400 mg/kg): 0.59 | ALB (male M1, 400 mg/kg): 2.37 g/dL | ALP (male M1, 400 mg/kg): 94.3 U/L | ALT (male M1, 400 mg/kg): 74.9 U/L | AST (male M1, 400 mg/kg): 27.2 U/L | BASO (male M1, 400 mg/kg): 0.6% | BUN (male M1, 400 mg/kg): 16.17 mg/dL | CHO (male M1, 400 mg/kg): 142 mg/dL | CRE (male M1, 400 mg/kg): 0.79 mg/dL | EOS (male M1, 400 mg/kg): 4.4% | HCT (male M1, 400 mg/kg): 50.5% | HGB (male M1, 400 mg/kg): 15.2 | K+ (male M1, 400 mg/kg): 5.1 mmol/L | LYM (male M1, 400 mg/kg): 25.1% | MCH (male M1, 400 mg/kg): 22.1 pg | MCHC (male M1, 400 mg/kg): 30.1 g/dL | MCV (male M1, 400 mg/kg): 73.2 fL | MONO (male M1, 400 mg/kg): 7.9% | NEU (male M1, 400 mg/kg): 61.7% | Na+ (male M1, 400 mg/kg): 146 mmol/L | PLT (male M1, 400 mg/kg): 347 K/uL | RBC (male M1, 400 mg/kg): 6.90 M/uL | Reti (male M1, 400 mg/kg): 0.34% | T-BIL (male M1, 400 mg/kg): 0.12 mg/dL | TG (male M1, 400 mg/kg): 34.4 mg/dL | WBC (male M1, 400 mg/kg): 9.43 K/uL | Mortality (male dog, 100 mg/kg): 0/1 | Clinical Observations Day 1 (male dog, 100 mg/kg, about 7 hours post dose): Brown soft stool (Oily) | Mortality (male dog, 400 mg/kg): 0/1 | Clinical Observations Day 1 (male dog, 400 mg/kg, about 1 hours post dose): Vomitius (Frothy) | Tolerability (single oral administration at 100 and 400 mg/kg): well tolerated
